# According to paper PMC10877564, “Activity of Gut-Derived Nisin-like Lantibiotics against Human Gut Pathogens and Commensals” (ACS Chemical Biology, 2024):
# No end group written: not given here.
# Key:
# [1] = tested on: Coprococcus eutactus MSK.18.32; assay: MIC assay, anaerobic broth dilution; format: cell-based; conditions: SAR study blauticin versus nisin O, Figure 4
# Excerpt: (§1) Antibiotic treatment may result in collateral damage to commensal bacteria in the human microbiome, leading to dysbiosis and susceptibility to various diseases.[44] How lantibiotics impact Gram-positive commensals from the human gut has remained unclear. Therefore, we performed antimicrobial activity tests of these lantibiotics against selected Gram-positive human gut commensals, most of which belong to the Lachnospiraceae family, one of the most abundant bacterial families in the human gut.[27] In general, human gut commensals were more susceptible to the set of investigated lantibiotics compared to pathogens (Figure 3).
# (§2) Elution Buffer (4 M guanidine hydrochloride, 20 mM Tris HCl, pH 7.5 at 25 °C, 100 mM NaCl, 1 M imidazole). Peptides eluted from the Ni resin were concentrated and desalted using 3 kDa Amicon filters (Millipore). For leader peptide removal, the peptide (1:20 trypsin to peptide) was incubated with the trypsin protease in 50 mM Tris-HCl, pH 8 overnight at 37 °C. Lastly, the core peptides were further purified with HPLC using an Agilent 1200 instrument (Agilent) as specified in general methods. About 1.5 mg recombinant peptide was obtained after HPLC purification per […]
# (§3) All MIC assays were performed under anaerobic condition. […] Lantibiotics were dissolved in DPBS, and concentrations were determined by BCA assay (Pierce) according to the manufacturer’s protocol. […]
# [2] = tested on: panel of Gram-positive human pathogens (VRE, MRSA, MRSE, L. monocytogenes, C. difficile); assay: MIC assay against the panel of Gram-positive human pathogens; format: cell-based; conditions: pathogen panel, Figure 3A-E; anaerobic
# Excerpt: Next, we set out to test the antimicrobial activities of these purified lantibiotics against a panel of Gram-positive bacteria that are representatives of some of the most prevalent human pathogens: VRE, Methicillin-resistant S. aureus USA300 (MRSA), Methicillin-resistant Staphylococcus epidermidis SK135 (MRSE), Listeria monocytogenes 10403S, and Clostridioides difficile VPI10463. We examined the growth of bacteria in a 96-well plate under a concentration gradient of lantibiotics under anaerobic conditions (Figure S2B).
# as §2
# Purification of blauticin from Blautia producta SCSK
# Stationary anaerobic culture of BPSCSK was inoculated 1:100 to 1 L BHIS. Culture was incubated on a heating plate at 37 °C with 220 rpm stirring for 2 days in an anaerobic chamber. Bacteria were pelleted with 15,000 x g centrifugation for 15 min. The supernatant was acidified with acetic acid to pH 5.5 and filtered through a 0.22 um filter. Filtered supernatant was loaded onto a HiTrap SP HP column using an AKTA Pure FPLC, which was eluted sequentially with 3 CV of distilled water, 200 mM NaCl, 400 mM NaCl, 600 mM NaCl, 800 mM NaCl, and 1 M NaCl. The 800 mM NaCl eluate was concentrated with a 3 kDa Amicon filter, followed by dialyzation with DPBS using a 3 kDa Amicon filter. Purification of blauticin was confirmed by SDS-PAGE, VRE inhibition in vitro assay, and MALDI-TOF MS. […]
# (§4) For broth cultures, isolates were grown in pre-reduced BHI supplemented with 5 g/L yeast extract (Difco, BD) and 0.1% L-cysteine under anaerobic condition.
# (§5) Minimal Inhibition Concentration (MIC) assay
# (§6) All MIC assays were performed under anaerobic condition. Stationary bacterial culture in BHIS (BHI supplemented with 5 g/L yeast extract and 0.1% L-cysteine) were inoculated 1:100 to wells containing 200 µL BHIS in U-bottom 96-well plates. Lantibiotics were dissolved in DPBS, and concentrations were determined by BCA assay (Pierce) according to the manufacturer’s protocol.
# Lantibiotic stock solutions were added to wells to reach desired final concentration, with 3-fold serial dilution across rows to create concentration gradients. Bacteria-inoculated wells without lantibiotics served as control. […]
# [3] = Liposome permeabilization assay, liposomes with lipid II; format: biochemical; conditions: 375 nM lantibiotic; DOPC with 0.1 mol% lipid II, 50 µM phospholipid; pyranine fluorescence, 30 min, room temperature; three replicates; Figure S7B
# Method: (§7) To further investigate the mechanisms of action of these nisin-like lantibiotics, we performed liposome permeabilization assays using liposomes with or without lipid II (Figure S7).
# (§8) Liposome Permeabilization Assay
# (§9) To prepare pyranine encapsulated liposomes, DOPC (25 mg/mL in CHCl3, purchased from Avanti) was deposited into a vial and mixed with lipid II (dissolved in 2:1 CHCl3: MeOH, prepared chemoenzymatically).6 The solvent was removed using a stream of N2 leaving a thin film. Residual solvent was removed by storing it overnight in a vacuum desiccator. The film was rehydrated in buffer (5 mM Tricine, 5 mM MES, 5 mM NaCl, 1 mM pyranine pH = 6.0) and suspended with vortexing. The suspension was subjected to freeze-thaw three times before extrusion through a […] polycarbonate filter (21 passes). Excess pyranine was removed by passing the liposome solution through a Sephadex G-50 column previously equilibrated with buffer (5 mM Tricine, 5 mM MES, 5 mM NaCl, pH = 6.0). The eluted liposome solution containing the highest concentration of encapsulated pyranine (as determined visually with a UV lamp) was immediately placed on ice. Phospholipid concentration was determined by NMR as described previously.7 To measure liposome permeabilization, to a 96 well black polystyrene plate was added buffer (5 mM Tricine, 5 mM MES, 5 mM NaCl, pH = 8.0; 97 µL) and liposome solution (3 µL; 50 µM phospholipid concentration during assay). The wells were allowed to equilibrate for 8 min at room temperature then antibiotic was added. The antibiotic concentration in each well was 375 nM.
# (§10) Pyranine fluorescence was monitored for 30 min then Triton X-100 was added to a final concentration of 0.1% and pyranine fluorescence was monitored for an additional 5 min. The pyranine fluorescence signal was max-min normalized. […]
# (§11) Fig. S7 Liposome permeabilization assays of nisin-like lantibiotics. (A) Scheme of liposome […]
# (§12) low fluorescence. Fluorescence increases upon liposome permeabilization and pH increase . (B) Fraction of liposomes permeabilized by lantibiotics (375 nM). Liposomes were composed of DOPC with or without 0.1 mol% lipid II. Error bars represent the standard of deviation of three […]
# (§13) (1 picture or pasted object on this page, not shown here)
# [4] = Liposome permeabilization assay, liposomes without lipid II; format: biochemical; conditions: 375 nM lantibiotic; DOPC, 50 µM phospholipid; pyranine fluorescence, 30 min; three replicates; Figure S7
# Method: as §7, §8, §9, §10, §11, §12, §13
# C. comes MSK.11.23 = assay: MIC assay, anaerobic broth dilution; format: cell-based, Coprococcus comes; conditions: Figure 3; anaerobic MIC assay
# Excerpt: as §1, with “3). […]” for “3).”
# Isolation of human gut commensal bacteria
# Isolation and growth of commensal bacteria was done as previously reported.5 Briefly, fresh donor fecal samples were transferred into an anaerobic chamber (Coy Labs) within 1 h of collection. The anaerobic chamber was maintained using a gas mix consisting of 5% hydrogen, 5% carbon dioxide and 90% nitrogen, and hydrogen was maintained at ~3.0% using an anaerobic gas infuser. Fecal samples were resuspended in pre-reduced PBS and plated on Columbia blood agar or brain-heart infusion (BHI – Difco, BD) agar plates in three serial 10-fold dilutions and incubated at 37 °C for 48 – 96 h. Isolated colonies were re-streaked for purity onto Columbia blood agar and frozen in pre-reduced 10% glycerol in PBS.
# as §4, §5, §6
# Lantibiotic stock solutions were added to wells to reach desired final concentration, with 3-fold serial dilution across rows to create concentration gradients. Bacteria-inoculated wells without lantibiotics served as control. Plates were incubated at 37 °C for 48 h before being taken out of the anaerobic chamber for centrifugation. Plates were imaged with an iBright 1500 imager […]
# pellets than those without lantibiotics were identified as MIC.
# [5] = tested on: selected Gram-positive human gut commensals; assay: MIC assay against the panel of Gram-positive human gut commensals; format: cell-based; conditions: commensal panel, Figure 3F-M; anaerobic
# Excerpt: as §1, §2, §3
Substance,"inhibition (MIC) of C. eutactus, comparison in words [1]",inhibitory activity against pathogens based on MIC (ranking in words) [2],permeabilization of lipid II-containing liposomes (in words) [3],permeabilization of liposomes without lipid II compared to liposomes with lipid II (in words) [4],sensitivity of C. comes MSK.11.23 to the lantibiotic (in words) (C. comes MSK.11.23),antimicrobial activity against human gut commensals (ranking in words) [5]
"MAKFDDFDLDVTKTAAGEGGVEPRITSKSLCTPGCVTGILMTCPVQTATCGCQITGK (also: bicyclic or more (positions not given here)) [blauticin, class I lantibiotic of Blautia producta SCSK, heterologously produced in E. coli in mixed dehydration states]",lower MIC than nisin O,intermediate activities,strongly induced permeabilization,decreased permeabilization activities,,
"MAKFDDFDLDVTKTAAQGGIEPKYKSKSVCTPGCPTGILMTCPLKTATCGCHITGK (also: bicyclic or more (positions not given here)) [Lan-Df, novel nisin-like class I lantibiotic from Dorea formicigenerans, close homologue of nisin O]",,strongest inhibitory activities,strongly induced permeabilization,decreased permeabilization activities,relatively resistant,generally more effective in growth inhibition
nisin O,,"nisin A and Lan-Df had the strongest inhibitory activities against pathogens based on their MIC, followed by nisin O",strongly induced permeabilization,decreased permeabilization activities,relatively resistant,
